Data taken from patent US20090100532A1, “TRANSGENIC MICE EXPRESSING HYPERSENSITIVE NICOTINIC RECEPTORS” (CALIFORNIA INSTITUTE OF TECHNOLOGY, priority 2007, published 2009).
Several values for one entry are separate records, joined by “and”; a condition that tells them apart may be missing. Identical values can stand only once. Like-named read-outs stand apart in the source and are kept apart here.

Columns and labels:
[1] = tested on: nAChRs; format: biochemical, mouse; details: for EC50: read-out: EC50 (±SEM), Total DA release
Protocol: (§1) Neurotransmitter Release from Striatal Synaptosomes. After a mouse was sacrificed by cervical dislocation, its brain was removed and placed immediately on an ice-cold platform and brain regions were dissected. Tissues from each mouse were homogenized in 0.5 ml of ice-cold 0.32 M sucrose buffered with 5 mM HEPES, pH 7.5. A crude synaptosomal pellet was prepared by centrifugation at 12,000 g for 20 min. The pellets were resuspended in “uptake buffer”: 128 mM NaCl, 2.4 mM KCl, 3.2 mM CaCl2, 1.2 mM KH2PO4, 1.2 mM MgSO4, 25 mM HEPES, pH 7.5, 10 mM glucose. For DA uptake, buffer was supplemented with 1 mM ascorbic acid and 0.01 mM pargyline, whereas for GABA uptake, buffer was supplemented with 1 mM aminooxyacetic acid. For [^3H]GABA uptake, synaptosomes were incubated for 10 min at 37° C. […] For DA uptake, synaptosomes were incubated at 37° C. in uptake buffer for 10 min before addition of 100 nM [^3H]dopamine (1 μCi for every 0.2 ml of synaptosomes), and the suspension was incubated for an additional 5 min.
(§2) All experiments were conducted at room temperature using methods described previously (Nashmi et al., 2007; Salminen et al., 2007) with modifications for collection into 96-well plates. In brief, aliquots of synaptosomes (80 μl) were distributed onto filters and perfused with buffer (uptake buffer containing 0.1% bovine serum albumin and 1 μM atropine with 1 μM nomifensine (for DA release) or 0.1 μM NNC-711 [1-(2-(((diphenylmethylene)amino)oxy)ethyl)-1,2,5,6-tetrahydro-3-pyridinecarboxylic acid hydrochloride]) (for GABA release) at 0.7 ml/min for 10 min, or buffer for 5 min followed by buffer with 50 nM αCtxMII. […] Fractions (−0.1 ml) were collected for 4 min into 96-well plates every 10 sec starting from 1 min before stimulation, using a Gilson FC204 fraction collector with a multicolumn adapter (Gilson, Inc.; Middleton, Wis.). Radioactivity was determined by scintillation counting using a 1450 MicroBeta Trilux scintillation counter (Perkin Elmer Life Sciences-Wallac Oy; Turku, Finland) after addition of 0.15 ml Optiphase ‘SuperMix’ scintillation cocktail. Instrument efficiency was 40%.
(§3) Data were analyzed using SigmaPlot 5.0 for DOS. Perfusion data were plotted as counts per minute versus fraction number. Fractions collected before and after the peak were used to calculate baseline as a single exponential decay. The calculated baseline was subtracted from the experimental data. Fractions that exceeded baseline by 10% or more were sunmmed to give total released cpm and then normalized to baseline to give units of release [(cpm-baseline)/baseline]. Agonist dose response data were fit to the Hill equation.

[2] = tested on: α6^L9′S mice; details: mouse, in vivo
Protocol: (§4) Locomotor Activity. Mice used to study locomotion were eight to sixteen weeks old by the beginning of an experiment, and were back-crossed to C57BL/6 at least three times. […] Mouse horizontal locomotor activity was measured with an infrared photobeam activity cage system (San Diego Instruments; San Diego, Calif.). Ambulation events were recorded when two contiguous photobeams were broken in succession. Acute locomotor activity in response to nicotinic ligands or other agents was studied by recording ambulation events during four 15 sec intervals per minute for a designated number of minutes. For most experiments, groups of eight mice were placed in the activity cages (18×28 cm) and their baseline level of activity was recorded for eight minutes. Mice were removed from their cage, injected (100 μl per 25 g body mass), and returned to the cage within 15 sec. […] For generation of locomotor activity concentration-response relationship profiles, a group of mice was administered saline and, after five to eight days off, each successive dose of drug. […] For 48 h home cage monitoring, mice were isolated in their own cage and habituated to the test room and cage for 24 h. Following this, locomotor activity was recorded in 15 min intervals for 48 h.

[3] = tested on: WT mice; details: mouse, in vivo
Protocol: as §4

[4] = biological target: hypersensitive nicotinic receptors in α6L9′S VTA DA neurons (Mus musculus, UniProt Q9ERK7+Q9R0W9, L280S); format: cell-based
Sequence of hypersensitive nicotinic receptors in α6L9′S VTA DA neurons (Q9ERK7 whole entry, looked up, stated change not applied): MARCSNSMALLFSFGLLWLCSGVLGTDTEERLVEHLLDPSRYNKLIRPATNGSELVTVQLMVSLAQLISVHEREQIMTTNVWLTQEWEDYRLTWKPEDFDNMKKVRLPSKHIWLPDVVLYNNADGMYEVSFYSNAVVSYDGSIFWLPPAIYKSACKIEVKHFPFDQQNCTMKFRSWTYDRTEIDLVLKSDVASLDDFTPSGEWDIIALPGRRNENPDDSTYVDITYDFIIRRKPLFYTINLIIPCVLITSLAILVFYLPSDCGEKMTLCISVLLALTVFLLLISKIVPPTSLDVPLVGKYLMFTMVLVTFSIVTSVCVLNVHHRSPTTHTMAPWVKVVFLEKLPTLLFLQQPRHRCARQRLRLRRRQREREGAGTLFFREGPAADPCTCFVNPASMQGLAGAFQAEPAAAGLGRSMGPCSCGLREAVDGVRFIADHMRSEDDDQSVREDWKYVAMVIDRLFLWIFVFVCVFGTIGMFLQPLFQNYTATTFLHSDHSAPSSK
Sequence of hypersensitive nicotinic receptors in α6L9′S VTA DA neurons (Q9R0W9 whole entry, looked up, stated change not applied): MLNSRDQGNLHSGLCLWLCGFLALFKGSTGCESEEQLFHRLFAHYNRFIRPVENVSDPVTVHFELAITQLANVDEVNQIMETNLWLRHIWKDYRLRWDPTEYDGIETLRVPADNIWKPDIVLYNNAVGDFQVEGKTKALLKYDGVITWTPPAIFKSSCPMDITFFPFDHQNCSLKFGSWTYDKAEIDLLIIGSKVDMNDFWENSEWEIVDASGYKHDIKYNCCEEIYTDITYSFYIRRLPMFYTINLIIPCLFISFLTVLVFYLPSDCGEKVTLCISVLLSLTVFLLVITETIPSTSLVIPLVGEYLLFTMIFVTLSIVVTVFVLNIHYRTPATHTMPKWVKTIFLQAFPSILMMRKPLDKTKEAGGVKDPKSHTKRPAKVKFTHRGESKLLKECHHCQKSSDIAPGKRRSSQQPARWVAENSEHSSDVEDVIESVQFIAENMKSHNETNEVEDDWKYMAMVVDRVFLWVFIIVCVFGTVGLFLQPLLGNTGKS

[5] = biological target: tonically active α6^L9′S channels in VTA DA neurons (Mus musculus, UniProt Q9ERK7+Q9R0W9, L280S); format: cell-based
Sequence of tonically active α6^L9′S channels in VTA DA neurons (Q9ERK7 whole entry, looked up, stated change not applied): as the sequence (Q9ERK7 whole entry, looked up, stated change not applied) above
Sequence of tonically active α6^L9′S channels in VTA DA neurons (Q9R0W9 whole entry, looked up, stated change not applied): as the sequence (Q9R0W9 whole entry, looked up, stated change not applied) above

[6] = biological target: T1, α4β2* (non-α6) nAChRs (Mus musculus, UniProt O70174+Q9ERK7); assay: biochemical; format: biochemical; details: for EC50: read-out: EC50 (±SEM), MII-resistant DA release
T1 construct: from tissue; host or cells: striatal / olfactory tubercle synaptosomes of WT and α6L9′S mice
T1 sequence (Q9ERK7 26-501): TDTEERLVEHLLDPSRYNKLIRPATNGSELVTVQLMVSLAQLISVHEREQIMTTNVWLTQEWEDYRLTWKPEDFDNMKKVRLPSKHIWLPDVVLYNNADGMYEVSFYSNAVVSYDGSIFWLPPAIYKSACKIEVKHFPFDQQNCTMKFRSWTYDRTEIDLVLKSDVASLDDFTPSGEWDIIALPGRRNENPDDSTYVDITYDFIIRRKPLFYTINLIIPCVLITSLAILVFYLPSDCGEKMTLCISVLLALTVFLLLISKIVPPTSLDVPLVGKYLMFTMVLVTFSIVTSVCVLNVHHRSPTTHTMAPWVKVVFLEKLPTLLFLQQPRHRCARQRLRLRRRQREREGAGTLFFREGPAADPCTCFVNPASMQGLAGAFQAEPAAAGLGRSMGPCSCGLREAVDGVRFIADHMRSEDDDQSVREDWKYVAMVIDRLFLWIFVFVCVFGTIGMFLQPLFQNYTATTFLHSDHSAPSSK
T1 sequence (O70174 31-629): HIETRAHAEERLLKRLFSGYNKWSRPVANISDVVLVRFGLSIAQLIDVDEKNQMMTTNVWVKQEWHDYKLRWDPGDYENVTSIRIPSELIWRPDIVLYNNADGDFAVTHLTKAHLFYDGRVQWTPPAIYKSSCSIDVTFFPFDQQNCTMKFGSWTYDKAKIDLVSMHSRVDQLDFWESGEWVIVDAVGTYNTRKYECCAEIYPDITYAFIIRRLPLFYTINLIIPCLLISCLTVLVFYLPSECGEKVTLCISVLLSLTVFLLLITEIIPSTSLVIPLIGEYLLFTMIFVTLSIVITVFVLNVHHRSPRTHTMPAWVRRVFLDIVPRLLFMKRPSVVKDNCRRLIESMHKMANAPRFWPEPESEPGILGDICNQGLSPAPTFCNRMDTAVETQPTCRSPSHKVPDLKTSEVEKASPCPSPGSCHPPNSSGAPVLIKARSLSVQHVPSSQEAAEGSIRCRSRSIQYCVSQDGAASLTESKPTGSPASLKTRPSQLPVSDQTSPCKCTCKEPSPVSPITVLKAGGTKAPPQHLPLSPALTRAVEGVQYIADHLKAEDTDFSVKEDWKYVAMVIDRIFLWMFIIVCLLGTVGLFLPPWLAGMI
Protocol: as §1, §2, §3

[7] = biological target: T2, α6* nAChRs (Mus musculus, UniProt Q9ERK7+Q9R0W9); assay: biochemical; format: biochemical
T2 construct: from tissue
T2 sequence (Q9R0W9 31-494): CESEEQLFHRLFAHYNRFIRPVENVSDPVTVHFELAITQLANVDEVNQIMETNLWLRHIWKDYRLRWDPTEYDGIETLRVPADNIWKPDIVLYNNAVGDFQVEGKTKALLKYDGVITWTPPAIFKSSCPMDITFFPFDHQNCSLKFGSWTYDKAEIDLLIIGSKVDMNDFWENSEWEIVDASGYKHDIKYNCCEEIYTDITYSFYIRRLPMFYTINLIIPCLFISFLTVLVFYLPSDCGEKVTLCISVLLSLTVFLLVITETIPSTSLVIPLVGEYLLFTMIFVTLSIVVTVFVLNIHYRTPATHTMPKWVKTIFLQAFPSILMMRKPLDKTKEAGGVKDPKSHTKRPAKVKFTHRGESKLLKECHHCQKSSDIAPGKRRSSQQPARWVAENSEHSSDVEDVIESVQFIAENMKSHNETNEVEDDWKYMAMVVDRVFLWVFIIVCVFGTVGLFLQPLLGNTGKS
T2 sequence (Q8BMN3 31-464, further chain): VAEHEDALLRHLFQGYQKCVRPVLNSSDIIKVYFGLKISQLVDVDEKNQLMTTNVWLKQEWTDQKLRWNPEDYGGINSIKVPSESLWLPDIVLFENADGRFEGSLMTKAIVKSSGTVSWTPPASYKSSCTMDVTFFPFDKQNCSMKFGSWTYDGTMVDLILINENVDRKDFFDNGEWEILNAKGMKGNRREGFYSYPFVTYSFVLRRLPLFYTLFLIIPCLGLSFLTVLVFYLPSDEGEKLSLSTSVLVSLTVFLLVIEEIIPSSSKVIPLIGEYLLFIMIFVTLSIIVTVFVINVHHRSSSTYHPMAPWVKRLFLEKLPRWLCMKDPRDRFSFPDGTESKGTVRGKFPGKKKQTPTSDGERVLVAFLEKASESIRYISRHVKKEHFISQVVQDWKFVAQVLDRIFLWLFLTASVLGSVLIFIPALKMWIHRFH
T2 sequence (Q9ERK7 26-501): as the sequence (Q9ERK7 26-501) above
Protocol: as §1, §2, §3

[8] = biological target: T3, α6* nAChRs (Mus musculus, UniProt Q9ERK7+Q9R0W9, L280S); assay: biochemical; format: biochemical
T3 construct: from tissue
T3 sequence (Q9ERK7 26-501, stated change not applied): as the sequence (Q9ERK7 26-501) above
T3 sequence (Q8BMN3 31-464, further chain): as the sequence (Q8BMN3 31-464, further chain) above
T3 sequence (Q9R0W9 31-494 L280S): as the sequence (Q9R0W9 31-494) above, with L250S counted along it
Protocol: as §1, §2, §3

[9] = tested on: N2a cells; assay: TIRF imaging of actin-containing membrane protrusions in N2a cells; format: cell-based, mouse
Protocol: TIRF Microscopy. N2a cells cultured in glass-bottomed, polyethylenimine-coated imaging dishes were transfected with cDNA mixtures as described above. Cells, superfused with the same imaging solution used for confocal microscopy, were imaged 18 to 24 h after transfection to minimize overexpression artifacts. TIRF images were obtained with an inverted microscope (Olympus IX71; Olympus America, Inc., Center Valley, Pa.) equipped with a 488-nm air-cooled argon laser (P/N IMA111040ALS; Melles Griot, Carlsbad, Calif.). Laser output was controlled with a UNIBLITZ shutter system and drive unit (P/N VMM-D1; Vincent Associates, Rochester, N.Y.) equipped with a Mitutoyo (Mitutoyo America, City of Industry, CA) micrometer to control TIRF evanescent field illumination. TIRF imaging was carried out with an Olympus PlanApo 100×1.45 NA oil objective, and images were captured with a 16-bit resolution Photometrics Cascade charge-coupled device camera (Photometrics, Tucson, Ariz.) controlled by SlideBook 4.0 imaging software (Intelligent Imaging Innovations, Santa Monica, Calif.).

[10] = tested on: VTA DA neurons
[11] = tested on: LC neurons (α6* nAChRs); format: cell-based, mouse

## c1cncc(C2CC3CCN2CC3)c1 (racemic) [TC 2429]
[1]
  %10 μM nic, Total DA release: 49.0% and 73.40% and 71.00%
  Rmax (±SEM), Total DA release: 8.68 ± 1.25 and 12.87 ± 0.37 and 11.86 ± 0.41
[2]
  locomotor activity: stimulated locomotor activity
[3]
  locomotor suppression: did not produce locomotor suppression

## N#Cc1cc2c(cc1[N+](=O)[O-])=NC(=O)C(=O)N=2 [CNQX, 6-cyano-7-nitroquinoxaline-2,3-dione]
[4]
  block of whole-cell responses to 1 μM nicotine: unaffected
[5]
  effect on increased channel/membrane noise: No effect

## CO[C@H]1CC=C2CCN3CCC4=C(CC(=O)OC4)[C@]23C1 [DHβE, dihydro-β-erythroidine]
[4]
  block of whole-cell responses to 1 μM nicotine: 100%
[5]
  effect on increased channel/membrane noise: completely eliminated

## CCN1C[C@]2(COC(=O)c3ccccc3N3C(=O)C[C@H](C)C3=O)CC[C@H](OC)[C@@]34[C@@H]5C[C@H]6[C@H](OC)[C@@H]5[C@](O)(C[C@@H]6OC)[C@@](O)([C@@H](OC)[C@H]23)[C@@H]14 [MLA, methyllycaconitine]
[4]
  block of whole-cell responses to 1 μM nicotine: 0%

## CNCC/C=C/c1cccnc1 [TC 2403]
[1]
  %10 μM nic, Total DA release: 74.11% and 54.47% and 51.19%
  Rmax (±SEM), Total DA release: 10.72 ± 0.61 and 10.57 ± 0.74
  EC50: 700 nM and 820 nM
[1]; ST/OT, WT
  Rmax (±SEM), Total DA release: 12.37 ± 0.93
  EC50: 2360 ± 560 nM
[1]; striatal synaptosomes
  potency and efficacy for DA release, α6^L9′S relative to WT: slightly more potent and had equivalent efficacy
[6]
  %10 μM nic, MII-resistant DA release: 81.78% and 81.48% and 90.64%
  Rmax (±SEM), MII-resistant DA release: 7.26 ± 0.29 and 9.3 ± 0.33
  agonist character at α4β2 for DA release (vs. nicotine): full agonist (vs. nicotine)
  EC50: 3530 nM and 4030 nM
[6]; ST/OT, WT
  Rmax (±SEM), MII-resistant DA release: 12.32 ± 0.26
  EC50: 2850 ± 350 nM
[7]
  %10 μM nic, MII-sensitive DA release: 28.83%
  agonist character at α6β2* for DA release (vs. nicotine): no activity
[7]; ST/OT, WT
  Rmax (±SEM), MII-sensitive DA release: 0.47 ± 0.2
[7]; ST/OT, WT, read-out: EC50 (±SEM), MII-sensitive DA release
  EC50: 60 ± 180 nM
[8]
  %10 μM nic, MII-sensitive DA release: 44.85% and 33.01%
  Rmax (±SEM), MII-sensitive DA release: 4.83 ± 0.15 and 3.43 ± 0.32
  agonist character at the αCtxMII-sensitive receptor: partial agonist
[8]; read-out: EC50 (±SEM), MII-sensitive DA release
  EC50: 190 nM and 100 nM
[2]
  locomotor activity: slight locomotor activation

## NC1=N[C@H](O)[C@H]2[C@H]3O[C@]4(O)O[C@@H]([C@@H](O)[C@@]2(N1)[C@@H]4O)[C@]3(O)CO [TTX, tetrodotoxin]
[4]
  block of whole-cell responses to 1 μM nicotine: unaffected
[5]
  effect on increased channel/membrane noise: No effect

## C/C1=C/C(=O)O[C@@H]2C[C@@H](CC[C@H](C)/C=C\CC1)O[C@@](O)([C@@H]1CSC(=O)N1)C2 [latrunculin B]
[9]
  effect on actin-containing membrane protrusions: destroyed

## CNC1(C)C2CCC(C2)C1(C)C (centres unmarked) [mecamylamine]
[2]
  effect of antagonist pre-injection on nicotine-stimulated locomotor response: strong block of the locomotor response

## COc1cc2nc(N3CCN(C(=O)c4ccco4)CC3)nc(N)c2cc1OC [prazosin]
[2]
  effect of antagonist pre-injection on nicotine-stimulated locomotor response: no change was found

## CCN1CCCC1CNC(=O)c1cc(S(N)(=O)=O)ccc1OC (centres unmarked) [sulpiride]
[10]
  baseline firing of VTA DA cells: modestly increase baseline firing
  effect on nicotine-induced increases in firing: did not affect
[2]
  effect of antagonist pre-injection on nicotine-stimulated locomotor response: partially inhibited

## COC(=O)[C@@H]1[C@H]2C[C@H]3c4[nH]c5ccccc5c4CCN3C[C@@H]2CC[C@@H]1O [yohimbine]
[2]
  effect of antagonist pre-injection on nicotine-stimulated locomotor response: no change was found

## picrotoxin
[5]
  effect on increased channel/membrane noise: No effect

## α-conotoxin MII [αCtxMII]
[11]
  inhibition of nicotine responses in LC neurons: sensitive to αCtxMII
[4]
  block of whole-cell responses to 1 μM nicotine: > 90%
  persistence of block after washout: 30 min
[5]
  effect on increased channel/membrane noise: completely eliminated
